Data taken from patent publication US20160183537A1 (priority 2014, published 2016).

Experiments:
Assay type in all cases: in vivo
[1] = tested on: Pepper Botrytis Blight (Botrytis cinerea); test: Greenhouse control of Pepper Botrytis Blight; details: 7 days after infection (1M conidia/ml), RTI472 and SERENADE OPTIMUM 1×10^8 cfu/ml, Tebuconazole 50 g a.i./ha, Chlorothalonil 500 g a.i./ha, non-treated 6% disease
[2] = tested on: Bean Rust (Uromyces appendiculatus); test: Greenhouse control of bean rust, second experiment; details: common bean, 10 days after infection (200 k conidia/ml), RTI472 and SERENADE OPTIMUM 1×10^8 cfu/ml, Tebuconazole 50 g a.i./ha, Chlorothalonil 500 g a.i./ha, non-treated 23% disease
[3] = tested on: Pepper Botrytis Blight (Botrytis cinerea); test: Greenhouse control of Pepper Botrytis Blight at varying pathogen inoculation rates; details: 4 days after infection, biologicals 1 × 10^8, Tebuconazole 50 g a.i./ha, non-treated 65% disease
[4] = tested on: Soybean Powdery Mildew (Microsphaera diffusa); test: Greenhouse control of soybean powdery mildew; details: 9 days after placing between infected flats, 1×10^8 cfu/ml, Tebuconazole (HORIZON) 50 g a.i./ha, non-treated 70% disease
[5] = tested on: Pepper Botrytis Blight (Botrytis cinerea); test: Greenhouse dose response for control of Pepper Botrytis Blight; details: 3 days after infection (1M conidia/ml), 50 g a.i./ha

Row | SMILES | Percent Disease Control [1] | Percent Disease Control [2] | Percent Disease Control ([3]; inoculum 1M conidia/ml) | Percent Disease Control ([3]; inoculum 2M conidia/ml) | Percent Disease Control [4] | Percent Disease Control [5]
1 | N#Cc1c(Cl)c(Cl)c(Cl)c(C#N)c1Cl [Chlorothalonil] | 99 a Percent | 100 a Percent | – | – | – | –
2 | CC(C)(C)C(O)(CCc1ccc(Cl)cc1)Cn1cncn1 (centres unmarked) [Tebuconazole] | 99 a Percent | 100 a Percent | 100 a Percent | 94 a Percent | 100 a Percent | 100 a Percent
